Columns and labels:
Assay type in all cases: in vivo
[1] = system: ragweed (common ragweed, Ambrosia artemisiifolia); experiment: Test A preemergence soil spray, visual injury rating 0-100; details: 10 days, 0 = no effect, 100 = complete control; for Ragweed plant response rating (0-100): 31 g ai/ha; for Ragweed plant response rating (0 to 100 scale): 125 g ai/ha
Description: (§1) Seeds of plant species selected from barnyardgrass (Echinochloa crus-galli), blackgrass (Alopecurus myosuroides), corn (Zea mays), foxtail, giant (giant foxtail, Setaria faberi), green foxtail (Setaria viridis), goosegrass (Eleusine indica), kochia (Bassia scoparia), oat, wild (wild oat, Avena fatua), palmer (palmer amaranth, palmer pigweed, Amaranthus palmeri), ragweed (common ragweed, Ambrosia artemisiifolia), ryegrass, Italian (italian ryegrass, Lolium multiflorum), soybean (Glycine max) and wheat (Triticum aestivum) were planted into a blend of loam soil and sand and treated preemergence with a directed soil spray using test chemicals formulated in a non-phytotoxic solvent mixture which included a surfactant.
(§2) At the same time, plants selected from these crops and weed species and also galium (catchweed bedstraw, Galium aparine) and horseweed (Erigeron canadensis) were planted in pots containing the same blend of loam soil and sand and treated with postemergence applications of test chemicals formulated in the same manner. Plants ranged in height from 2 to 10 cm and were in the one- to two-leaf stage for the postemergence treatment. Treated plants and untreated controls were maintained in a greenhouse for 10 days, after which time all treated plants were compared to untreated controls and visually evaluated for injury. Plant response ratings, summarized in Table A, are based on a 0 to 100 scale where 0 is no effect and 100 is complete control. A dash (-) response means no test result.

[2] = system: palmer (palmer amaranth, palmer pigweed, Amaranthus palmeri); experiment: as above; details: 10 days, 0 = no effect, 100 = complete control; for Amaranth, Palmer plant response rating (0-100): 31 g ai/ha; for Amaranth, Palmer plant response rating (0 to 100 scale): 125 g ai/ha
Description: as §1, §2

[3] = system: barnyardgrass (Echinochloa crus-galli); experiment: as above; details: 10 days, 0 = no effect, 100 = complete control; for Barnyardgrass plant response rating (0-100): 31 g ai/ha; for Barnyardgrass plant response rating (0 to 100 scale): 125 g ai/ha
Description: as §1, §2

corn (Zea mays) [4] = experiment: as above; details: 10 days, 0 = no effect, 100 = complete control; for Corn plant response rating (0-100): 31 g ai/ha; for Corn plant response rating (0 to 100 scale): 125 g ai/ha
Description: as §1, §2

[5] = system: oat, wild (wild oat, Avena fatua); experiment: as above; details: 10 days, 0 = no effect, 100 = complete control; for Oat, Wild plant response rating (0-100): 31 g ai/ha; for Oat, Wild plant response rating (0 to 100 scale): 125 g ai/ha
Description: as §1, §2

[6] = system: ryegrass, Italian (italian ryegrass, Lolium multiflorum); experiment: as above; details: 10 days, 0 = no effect, 100 = complete control; for Ryegrass, Italian plant response rating (0-100): 31 g ai/ha; for Ryegrass, Italian plant response rating (0 to 100 scale): 125 g ai/ha
Description: as §1, §2

[7] = system: wheat (Triticum aestivum); experiment: as above; details: 10 days, 0 = no effect, 100 = complete control; for Wheat plant response rating (0-100): 31 g ai/ha; for Wheat plant response rating (0 to 100 scale): 125 g ai/ha
Description: as §1, §2

soybean (Glycine max) [8] = experiment: as above; details: 10 days, 0 = no effect, 100 = complete control; for Soybean plant response rating (0-100): 31 g ai/ha; for Soybean plant response rating (0 to 100 scale): 125 g ai/ha
Description: as §1, §2

kochia (Bassia scoparia) [9] = experiment: as above; details: 10 days, 0 = no effect, 100 = complete control; for Kochia plant response rating (0-100): 31 g ai/ha; for Kochia plant response rating (0 to 100 scale): 125 g ai/ha
Description: as §1, §2

[10] = system: blackgrass (Alopecurus myosuroides); experiment: as above; details: 10 days, 0 = no effect, 100 = complete control; for Blackgrass plant response rating (0-100): 31 g ai/ha; for Blackgrass plant response rating (0 to 100 scale): 125 g ai/ha
Description: as §1, §2

[11] = system: ragweed (common ragweed, Ambrosia artemisiifolia); experiment: Test A postemergence application, visual injury rating 0-100; details: Postemergence
Description: as §1, §2

[12] = system: palmer (palmer amaranth, palmer pigweed, Amaranthus palmeri); experiment: as above; details: Postemergence
Description: as §1, §2

[13] = system: barnyardgrass (Echinochloa crus-galli); experiment: as above; details: Postemergence
Description: as §1, §2

corn (Zea mays) [14] = experiment: as above; details: Postemergence
Description: as §1, §2

[15] = system: oat, wild (wild oat, Avena fatua); experiment: as above; details: Postemergence
Description: as §1, §2

[16] = system: ryegrass, Italian (italian ryegrass, Lolium multiflorum); experiment: as above; details: Postemergence
Description: as §1, §2

[17] = system: galium (catchweed bedstraw, Galium aparine); experiment: as above; details: Postemergence
Description: as §1, §2

[18] = system: wheat (Triticum aestivum); experiment: as above; details: Postemergence
Description: as §1, §2

soybean (Glycine max) [19] = experiment: as above; details: Postemergence
Description: as §1, §2

[20] = system: horseweed (Erigeron canadensis); experiment: as above; details: Postemergence
Description: as §1, §2

kochia (Bassia scoparia) [21] = experiment: as above; details: Postemergence
Description: as §1, §2

[22] = system: blackgrass (Alopecurus myosuroides); experiment: as above; details: Postemergence
Description: as §1, §2

[23] = 31 g ai/ha, greenhouse 10 days, 0 no effect, 100 complete control
[24] = 125 g ai/ha, 10 days, 0 is no effect, 100 is complete control

CC1(C(=O)NC2CC=C(C(=O)NS(=O)(=O)C3CC3)C2)CN(c2cc(Cl)cc(Cl)c2)C(=O)O1 (stereo not shown) [Compound 75]
40: Wheat plant response rating (0 to 100 scale) [7] | Blackgrass plant response rating (0 to 100 scale) [10] | Galium plant response rating (0 to 100 scale) [17, 23] | Horseweed plant response rating (0 to 100 scale) [20, 23]
60: Ragweed plant response rating (0 to 100 scale) [11, 24]
20: Blackgrass plant response rating (0-100) [10] | Soybean plant response rating (0 to 100 scale) (soybean (Glycine max) [19]; [23])
70: Ryegrass, Italian plant response rating (0 to 100 scale) [6] | Amaranth, Palmer / Pigweed, Palmer plant response rating (0 to 100 scale) [12, 23] | Corn plant response rating (0 to 100 scale) (corn (Zea mays) [14]; [23]) | Ryegrass, Italian plant response rating (0 to 100 scale) [16, 24] | Wheat plant response rating (0 to 100 scale) [18, 23] | Horseweed plant response rating (0 to 100 scale) [20, 24]
30: Soybean plant response rating (0-100) (soybean (Glycine max) [8])
90: Amaranth, Palmer plant response rating (0 to 100 scale) [2] | Kochia plant response rating (0 to 100 scale) (kochia (Bassia scoparia) [9]) | Amaranth, Palmer / Pigweed, Palmer plant response rating (0 to 100 scale) [12, 24] | Barnyardgrass plant response rating (0 to 100 scale) [13, 24] | Corn plant response rating (0 to 100 scale) (corn (Zea mays) [14]; [24]) | Oat, Wild plant response rating (0 to 100 scale) [15, 24]
0: Ragweed plant response rating (0 to 100 scale) [1] | Barnyardgrass plant response rating (0-100) [3] | Corn plant response rating (0-100) (corn (Zea mays) [4]) | Corn plant response rating (0 to 100 scale) (corn (Zea mays) [4]) | Oat, Wild plant response rating (0-100) [5] | Oat, Wild plant response rating (0 to 100 scale) [5] | Wheat plant response rating (0-100) [7] | Ragweed plant response rating (0 to 100 scale) [11, 23] | Blackgrass plant response rating (0 to 100 scale) [22, 23]
80: Barnyardgrass plant response rating (0 to 100 scale) [3] | Barnyardgrass plant response rating (0 to 100 scale) [13, 23] | Galium plant response rating (0 to 100 scale) [17, 24] | Wheat plant response rating (0 to 100 scale) [18, 24] | Kochia plant response rating (0 to 100 scale) (kochia (Bassia scoparia) [21]; [23]) | Kochia plant response rating (0 to 100 scale) (kochia (Bassia scoparia) [21]; [24]) | Blackgrass plant response rating (0 to 100 scale) [22, 24]
50: Amaranth, Palmer plant response rating (0-100) [2] | Kochia plant response rating (0-100) (kochia (Bassia scoparia) [9]) | Ryegrass, Italian plant response rating (0 to 100 scale) [16, 23] | Soybean plant response rating (0 to 100 scale) (soybean (Glycine max) [19]; [24])
10: Ragweed plant response rating (0-100) [1] | Ryegrass, Italian plant response rating (0-100) [6] | Soybean plant response rating (0 to 100 scale) (soybean (Glycine max) [8]) | Oat, Wild plant response rating (0 to 100 scale) [15, 23]

CC1(C(=O)NC2C=CC(C(=O)NS(=O)(=O)C(C)(C)C)C2)CN(c2cc(F)cc(F)c2)C(=O)O1 (stereo not shown) [Compound 80]
70: Kochia plant response rating (0 to 100 scale) (kochia (Bassia scoparia) [9]) | Amaranth, Palmer / Pigweed, Palmer plant response rating (0 to 100 scale) [12, 24] | Ryegrass, Italian plant response rating (0 to 100 scale) [16, 23] | Soybean plant response rating (0 to 100 scale) (soybean (Glycine max) [19]; [23]) | Horseweed plant response rating (0 to 100 scale) [20, 24] | Kochia plant response rating (0 to 100 scale) (kochia (Bassia scoparia) [21]; [23]) | Blackgrass plant response rating (0 to 100 scale) [22, 24]
0: Ragweed plant response rating (0 to 100 scale) [1] | Amaranth, Palmer plant response rating (0-100) [2] | Barnyardgrass plant response rating (0-100) [3] | Corn plant response rating (0-100) (corn (Zea mays) [4]) | Corn plant response rating (0 to 100 scale) (corn (Zea mays) [4]) | Oat, Wild plant response rating (0-100) [5] | Ryegrass, Italian plant response rating (0-100) [6] | Wheat plant response rating (0-100) [7] | Soybean plant response rating (0-100) (soybean (Glycine max) [8]) | Kochia plant response rating (0-100) (kochia (Bassia scoparia) [9]) | Blackgrass plant response rating (0-100) [10] | Ragweed plant response rating (0 to 100 scale) [11, 23]
80: Barnyardgrass plant response rating (0 to 100 scale) [13, 23] | Ryegrass, Italian plant response rating (0 to 100 scale) [16, 24] | Galium plant response rating (0 to 100 scale) [17, 23] | Galium plant response rating (0 to 100 scale) [17, 24] | Soybean plant response rating (0 to 100 scale) (soybean (Glycine max) [19]; [24]) | Kochia plant response rating (0 to 100 scale) (kochia (Bassia scoparia) [21]; [24])
10: Ragweed plant response rating (0-100) [1] | Soybean plant response rating (0 to 100 scale) (soybean (Glycine max) [8]) | Horseweed plant response rating (0 to 100 scale) [20, 23]
50: Amaranth, Palmer plant response rating (0 to 100 scale) [2] | Wheat plant response rating (0 to 100 scale) [7] | Amaranth, Palmer / Pigweed, Palmer plant response rating (0 to 100 scale) [12, 23]
30: Oat, Wild plant response rating (0 to 100 scale) [5] | Blackgrass plant response rating (0 to 100 scale) [10] | Corn plant response rating (0 to 100 scale) (corn (Zea mays) [14]; [23]) | Blackgrass plant response rating (0 to 100 scale) [22, 23]
60: Ryegrass, Italian plant response rating (0 to 100 scale) [6] | Wheat plant response rating (0 to 100 scale) [18, 23]
90: Barnyardgrass plant response rating (0 to 100 scale) [13, 24] | Oat, Wild plant response rating (0 to 100 scale) [15, 23] | Oat, Wild plant response rating (0 to 100 scale) [15, 24] | Wheat plant response rating (0 to 100 scale) [18, 24]
40: Barnyardgrass plant response rating (0 to 100 scale) [3] | Ragweed plant response rating (0 to 100 scale) [11, 24]
100: Corn plant response rating (0 to 100 scale) (corn (Zea mays) [14]; [24])

Reference: patent US20260285850A1, “SUBSTITUTED OXAZOLIDINONES AND IMIDAZOLINONES AS HERBICIDES” (FMC CORPORATION, priority 2023, published 2026)
